Measurements published in ChEMBL document CHEMBL4196124, “Reverse Hydroxamate Inhibitors of Bone Morphogenetic Protein 1” (ACS Med Chem Lett, 2018).

Legend:
[1] = organism: Homo sapiens; experiment: Selectivity ratio of IC50 for recombinant human C-terminal MMP3 (83 to 255 residues) catalytic domain expressed in Escherichia coli to IC50 for recombinant human N-terminal 6His/flag-tagged BMP1 (121 to 721 residues) expressed in CHO cells
[2] = target: Cytochrome P450 3A4 (Homo sapiens, UniProt P08684); experiment: Time dependent inhibition of CYP3A4 (unknown origin) at 33 uM measured over 15 mins relative to control; format: ADME; conditions: 0.25 h
Cytochrome P450 3A4, sequence (P08684 whole entry): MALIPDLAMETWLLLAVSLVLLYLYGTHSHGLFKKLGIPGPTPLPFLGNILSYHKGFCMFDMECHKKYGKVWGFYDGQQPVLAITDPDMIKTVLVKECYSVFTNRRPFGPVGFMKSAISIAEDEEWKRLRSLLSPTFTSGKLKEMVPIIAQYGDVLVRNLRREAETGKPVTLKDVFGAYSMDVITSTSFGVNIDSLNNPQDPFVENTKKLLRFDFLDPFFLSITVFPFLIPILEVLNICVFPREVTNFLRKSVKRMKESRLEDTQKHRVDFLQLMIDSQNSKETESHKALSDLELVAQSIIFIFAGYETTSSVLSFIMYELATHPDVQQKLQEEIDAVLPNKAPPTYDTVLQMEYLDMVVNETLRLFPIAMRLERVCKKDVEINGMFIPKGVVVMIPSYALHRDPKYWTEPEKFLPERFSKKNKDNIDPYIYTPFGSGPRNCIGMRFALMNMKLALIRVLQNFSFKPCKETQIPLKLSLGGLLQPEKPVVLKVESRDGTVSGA

[3] = target: Macrophage metalloelastase (Homo sapiens, UniProt P39900); experiment: Inhibition of MMP12 (unknown origin)
Macrophage metalloelastase, sequence (P39900 whole entry, the tested form may be a part): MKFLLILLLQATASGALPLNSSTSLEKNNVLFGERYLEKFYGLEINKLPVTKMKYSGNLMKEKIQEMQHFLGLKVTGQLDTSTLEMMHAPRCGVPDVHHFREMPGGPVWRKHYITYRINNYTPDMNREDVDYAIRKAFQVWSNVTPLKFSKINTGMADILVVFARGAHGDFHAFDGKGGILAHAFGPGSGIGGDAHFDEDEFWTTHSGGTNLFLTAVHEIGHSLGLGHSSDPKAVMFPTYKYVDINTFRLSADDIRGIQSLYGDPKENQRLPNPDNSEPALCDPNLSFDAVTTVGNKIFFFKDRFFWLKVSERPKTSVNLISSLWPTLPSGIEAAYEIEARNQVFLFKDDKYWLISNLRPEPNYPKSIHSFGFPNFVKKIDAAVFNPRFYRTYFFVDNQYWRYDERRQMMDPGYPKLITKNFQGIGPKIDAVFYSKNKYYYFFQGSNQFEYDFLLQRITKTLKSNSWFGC

[4] = organism: Homo sapiens; experiment: Selectivity ratio of IC50 for ACE2 (unknown origin) to IC50 for recombinant human N-terminal 6His/flag-tagged BMP1 (121 to 721 residues) expressed in CHO cells; format: cell-based
[5] = organism: Homo sapiens; experiment: Selectivity ratio of IC50 for recombinant human C-terminal MMP9 (88 to 438 residues) catalytic domain expressed in Escherichia coli to IC50 for recombinant human N-terminal 6His/flag-tagged BMP1 (121 to 721 residues) expressed in CHO cells
[6] = organism: Homo sapiens; experiment: Selectivity ratio of IC50 for recombinant human C-terminal MMP2 (81 to 423 residues) catalytic domain expressed in Escherichia coli to IC50 for recombinant human N-terminal 6His/flag-tagged BMP1 (121 to 721 residues) expressed in CHO cells
[7] = target: T1, Tolloid-like protein 1 (Homo sapiens, UniProt O43897); experiment: Inhibition of recombinant human full length TLL1 using ((5-FAM)-ELIDQYDVQRDDSSDGSLED-K(5,6 TAMRA)-CONH2) as substrate preincubated for 10 mins followed by substrate addition measured after 60 mins
T1 sequence (O43897 whole entry): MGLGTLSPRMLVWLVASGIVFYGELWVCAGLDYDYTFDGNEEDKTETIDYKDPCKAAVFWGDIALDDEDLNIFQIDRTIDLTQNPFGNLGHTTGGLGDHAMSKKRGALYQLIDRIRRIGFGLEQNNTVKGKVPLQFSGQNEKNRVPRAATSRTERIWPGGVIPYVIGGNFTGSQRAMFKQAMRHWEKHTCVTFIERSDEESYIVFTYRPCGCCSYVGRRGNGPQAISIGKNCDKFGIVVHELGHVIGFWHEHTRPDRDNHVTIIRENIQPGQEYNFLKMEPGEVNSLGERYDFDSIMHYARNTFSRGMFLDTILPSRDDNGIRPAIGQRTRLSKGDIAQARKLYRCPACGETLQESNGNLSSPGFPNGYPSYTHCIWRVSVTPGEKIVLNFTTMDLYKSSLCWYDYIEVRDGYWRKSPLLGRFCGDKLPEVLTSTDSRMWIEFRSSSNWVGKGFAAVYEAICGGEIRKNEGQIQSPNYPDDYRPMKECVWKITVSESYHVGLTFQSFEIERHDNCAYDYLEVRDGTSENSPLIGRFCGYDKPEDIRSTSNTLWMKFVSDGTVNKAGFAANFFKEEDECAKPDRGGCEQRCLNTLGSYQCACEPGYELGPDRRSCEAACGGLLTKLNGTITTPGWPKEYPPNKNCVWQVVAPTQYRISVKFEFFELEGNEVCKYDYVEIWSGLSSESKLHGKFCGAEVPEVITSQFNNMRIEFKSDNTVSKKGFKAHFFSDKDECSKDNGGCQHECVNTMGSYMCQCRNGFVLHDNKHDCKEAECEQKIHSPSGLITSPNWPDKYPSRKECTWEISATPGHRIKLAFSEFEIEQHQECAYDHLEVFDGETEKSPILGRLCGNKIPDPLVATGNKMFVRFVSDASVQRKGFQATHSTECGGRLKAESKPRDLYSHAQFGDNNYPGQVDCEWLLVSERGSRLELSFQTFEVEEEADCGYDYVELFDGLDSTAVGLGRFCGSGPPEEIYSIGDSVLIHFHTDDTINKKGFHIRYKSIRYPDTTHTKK

[8] = organism: Homo sapiens; experiment: Selectivity ratio of IC50 for recombinant human C-terminal MMP1 (81 to 249 residues) catalytic domain expressed in Escherichia coli to IC50 for recombinant human N-terminal 6His/flag-tagged BMP1 (121 to 721 residues) expressed in CHO cells
[9] = organism: Homo sapiens; experiment: Selectivity ratio of IC50 for ADAM10 (unknown origin) to IC50 for recombinant human N-terminal 6His/flag-tagged BMP1 (121 to 721 residues) expressed in CHO cells; format: cell-based
[10] = organism: Homo sapiens; experiment: Selectivity ratio of IC50 for recombinant human C-terminal MMP14 (Tyr92 to Arg278 residues) catalytic domain expressed in Escherichia coli to IC50 for recombinant human N-terminal 6His/flag-tagged BMP1 (121 to 721 residues) expressed in CHO cells

fold change (FC) [2]: 4.3 | IC50 [3]: 10 µM | IC50 [7]: 0.1 µM
Structure (SMILES): CCCCC[C@@H](C(=O)NCNC(=O)c1ccc(-c2ccccc2)o1)[C@@H](CC)N(O)C=O
Ratio IC50 [1]: > 30 | Ratio IC50 [4]: > 30 | Ratio IC50 [5]: > 30 | Ratio IC50 [6]: > 30 | Ratio IC50 [8]: > 30 | Ratio IC50 [9]: > 30 | Ratio IC50 [10]: > 30
